Key:
[1] = tested on: BPAEC cells; experiment: Dye toxicity experiment, 48 hour incubation, imaging; details: 5 μM dye 48 hours, then 1 μM staurosporine overnight
Description: In another experiment to look at dye toxicity. BPAEC cells were incubated overnight in growth media (DMEM+10% FBS). […] After the 48 hour incubation, DMSO (control) or 1 μM staurosporine (final concentration) was added to a subset of the dye-treated cells and incubated overnight at 37° C.

[2] = tested on: Jurkat cells; experiment: Flow cytometry of Jurkat cells treated with 1 μM staurosporine for 1 hour, then Compound 1; assay type: cell-based; details: for positive population, density plots: not shown
Description: In another experiment, Jurkat cells treated with 1 μM Staurosporine for 1 hour (FIG. 5A) or untreated control cells (FIG. 5B) were then treated with Compound 1. Cells were then analyzed on an ATTUNE® NXT flow cytometer. The cells were oriented on a SSC/FSC plot to include both low and high side scatter cells, but to exclude debris and gated to exclude doublets (not shown).

[3] = tested on: Jurkat cells; experiment: Flow cytometric detection of caspase activity and apoptosis, staurosporine dilution series; assay type: cell-based
Description: Jurkat cells in log phase were resuspended in complete medium (RPMI-1640, supplemented with 10% Fetal Bovine Serum, 2 mM L-glutamine & 55 U/mL) and adjusted to a concentration of 2×10^6 cells per milliliter. 100 μl of cells were aliquoted in each well of a 96-well, V-bottom microplate so that 8 dilutions in triplicate were tested for each substrate.
Drug dilutions for treating cells were created by adding 1000 μL of complete medium containing 2 μM Staurosporine, 1:2 dilutions of this were added to 500 μL of complete medium, so that a series of 8 dilutions of Staurosporine were created.
100 μL of the media/Staurosporine mixtures were added to each well so that 3 wells of cells contained the highest dose, and then repeated for the next set of 3 wells.
Cells were incubated at 37° C., 5% CO2 in a standard cell culture incubator for 4 hours.
After the 4 hour incubation, each well had 1 μL of caspase substrate added so that the final concentration of the substrate was 2 μM of substrate in 200 μL of media. […]
At the end of the incubation, cells were analyzed using an ATTUNE® NXT Acoustic Focusing Cytometer (Thermo Fisher Scientific, Waltham. Mass.) using the 488 nm excitation and 530/30 nm emission filters to detect CELLEVENT™ Green, or the 405 nm excitation laser and the 440/50 nm emission filters to detect Compound 1. […]

[4] = tested on: HeLa cells; experiment: Fluorescence microscopy detection of caspase activity and apoptosis, nuclear intensity and Z'; assay type: cell-based; details: 1 μM versus 1 nM staurosporine, 18 hour incubation, HCSStudio
Description: HeLa cells at a density of 7500 cells/well were incubated overnight in growth media (MEM+10% FBS. L-glutamine and Pen-Strep). Half of the plate was treated with 1 μM Staurosporine (FIG. 8B), while the other half was treated with 1 nM Staurosporine (FIG. 8A). After an 18 hour incubation (37° C., 5% CO2), all cells were incubated with SYT®82 (FIGS. 8A and 8B, left panels) and Compound 1 (FIGS. 8A and 8B, center panels). The average intensity of Compound 1 in the cellular nuclear region was calculated using HCSStudio (Compartmental Analysis Bioapplication), and a Z′ was determined (Z′=0.63).

[5] = tested on: HeLa cells; experiment: Fluorescence microscopy and HCS staurosporine dose-response; assay type: cell-based; details: 5 hours; for recognition of apoptotic cells, imaging: 5 μM Compound 1 or 9 or 4 μM CELLEVENT Green 3/7, 10 μM to 0 μM staurosporine, FIG. 9A-9C; for dose-response curve of dye fluorescence to staurosporine: 5 μM dye, 10 μM to 0 μM staurosporine, CX5 HCS, FIG. 9D
Description: The dye/staurosporine stock solution was diluted 1:10 onto HeLa cells in complete media for a final concentration starting at 5 μM Compound 1 or Compound 9, or 4 μM CELLEVENT Green 3/7 and 10 μM staurosporine and ending at 0 μM staurosporine. After a 5 hour incubation at 37° C., live cells were imaged using white light, DAPI and FITC filters. The cells were then fixed and stained with HCS […]™ Deep Red stain (Thermo Fisher Scientific, Waltham, Mass.) and quantified on a […]™ CX5 High Content Screening (HCS) Platform (Thermo Fisher Scientific, Waltham, Mass.).

[6] = tested on: Jurkat cells; experiment: Flow cytometry of Jurkat cells +/- 0.5 μM staurosporine, with SYTOX Dead Cell Stain; assay type: cell-based; details: Jurkat cells +/- 0.5 μM staurosporine 3.5 hours, 1 μM dye 30 min, FIG. 7A/7B
Description: In yet another experiment, Jurkat cells were resuspended at 1×10^6 cells/ml in RPMI medium+10% FBS and aliquoted into 0.2 ml samples. The cells were treated with 0.5 μM Staurosporine (+STR) or without (−STR) for 3.5 hours at 37° C. […] 1 μl SYTOX™ Dead Cell Stain (Thermo Fisher Scientific, Waltham. Mass.) was added to the cells and incubated for at least 15 min. Cells were analyzed on an ATTUNE™ NXT flow cytometer as described above and were analyzed without washing.

| Compound | detection of staurosporine-induced apoptotic cells after long incubation with dye [1] | Compound 1 positive cells, histograms ([2]; Jurkat cells treated with 1 μM staurosporine for 1 hour, FIG. 5A) | positive population, density plots ([2]; Jurkat cells treated with 1 μM staurosporine for 1 hour) | Compound 1 positive cells, histograms ([2]; untreated control Jurkat cells (no staurosporine) stained with Compound 1, FIG. 5B) | positive population, density plots ([2]; untreated control Jurkat cells (no staurosporine) stained with Compound 1) | positive cells (percent positive of intact single cells) ([3]; 1 μM staurosporine 4 hours, 2 μM substrate 30 minutes, FIG. 4A/4B) | detection of apoptosis over the entire staurosporine concentration range, CELLEVENT Green 3/7 versus Compound 1 ([3]; 8 staurosporine dilutions in triplicate, 2 μM substrate, FIG. 3) | Z' from average intensity of Compound 1 in the cellular nuclear region [4] | recognition of apoptotic cells, imaging [5] | dose-response curve of dye fluorescence to staurosporine [5] | distinction of non-apoptotic from apoptotic cell populations [6] |
| --- | --- | --- | --- | --- | --- | --- | --- | --- | --- | --- | --- |
| CC(=O)N[C@@H](CC(=O)O)C(=O)N[C@@H](CCC(=O)O)C(=O)N[C@H](C(=O)N[C@@H](CC(=O)O)C(=O)NCCN(C)c1ccc(-c2nc3ccc(-c4nc5ccc(N6CCN(C)CC6)cc5[nH]4)cc3[nH]2)cc1)C(C)C [Compound 1] | able to detect the staurosporine-induced apoptotic cells | 3.49% | 3.55% | 1.30% | 1.32% | 84.9% | essentially no difference | 0.63 | recognize apoptotic cells | good induction of apoptosis |  |
| CC(=O)N[C@@H](CC(=O)O)C(=O)N[C@@H](CCC(=O)O)C(=O)N[C@H](C(=O)N[C@@H](CC(=O)O)C(=O)NCCCCCN(C)c1ccc(-c2nc3ccc(-c4nc5ccc(N6CCN(C)CC6)cc5[nH]4)cc3[nH]2)cc1)C(C)C [Compound 9] | able to detect the staurosporine-induced apoptotic cells |  |  |  |  |  |  |  | recognize apoptotic cells | good induction of apoptosis | distinguished non-apoptotic from apoptotic cell populations |

— patent US10941435B2, “Methods and compositions for detecting or measuring caspases or apoptosis” (priority 2016, dated 2021)
